Reference: the supplement of paper PMC10307832

What was measured:
Assay in all cases: relative viability (nuclei count vs DMSO), 5 days (fraction); higher = more cells survive
Selisistat + Bortezomib = compound: C1CC(C2=C(C1)C3=C(N2)C=CC(=C3)Cl)C(=O)N [Selisistat] + CC(C)C[C@H](NC(=O)[C@H](Cc1ccccc1)NC(=O)c1cnccn1)B(O)O [Bortezomib] (partner 0.002 µM)
How it was run: (§1)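 Cells from lung cancer lines were seeded into 1536-well plates and, one day later, dosed by pin tool. Treatments were either a single drug or a fixed dose of an anchor drug with five library-drug doses (not always all listed) in √10 steps. After 5 days, nuclei were stained in a one-step fixation (final 0.05% Triton X-100, 1% formaldehyde, 1 ug/ml Hoechst) and counted on 4× images, and relative viability is the treated-to-vehicle nuclei ratio, as the median of duplicate plates.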

Selisistat + Vorinostat = compound: C1CC(C2=C(C1)C3=C(N2)C=CC(=C3)Cl)C(=O)N [Selisistat] + O=C(CCCCCCC(=O)Nc1ccccc1)NO [Vorinostat] (partner 1 µM)
How it was run: as §1

Serdemetan + Phenformin = compound: c1ccc2c(CCNc3ccc(Nc4ccncc4)cc3)c[nH]c2c1 [Serdemetan] + N=C(N)NC(=N)NCCc1ccccc1 [Phenformin] (partner 250 µM)
How it was run: as §1

Serdemetan + AZD7762 = compound: c1ccc2c(CCNc3ccc(Nc4ccncc4)cc3)c[nH]c2c1 [Serdemetan] + NC(=O)Nc1cc(-c2cccc(F)c2)sc1C(=O)N[C@H]1CCCNC1 [AZD7762] (partner 0.2 µM)
How it was run: as §1

Cell Line	relative viability (Selisistat + Bortezomib; first compound 0.4 µM)	relative viability (Selisistat + Bortezomib; first compound 1.265 µM)	relative viability (Selisistat + Bortezomib; first compound 4 µM)	relative viability (Selisistat + Bortezomib; first compound 12.65 µM)	relative viability (Selisistat + Bortezomib; first compound 40 µM)	relative viability (Selisistat + Vorinostat; first compound 0.4 µM)	relative viability (Selisistat + Vorinostat; first compound 1.265 µM)	relative viability (Selisistat + Vorinostat; first compound 12.65 µM)	relative viability (Selisistat + Vorinostat; first compound 40 µM)	relative viability (Serdemetan + Phenformin; first compound 0.04 µM)	relative viability (Serdemetan + Phenformin; first compound 0.1265 µM)	relative viability (Serdemetan + Phenformin; first compound 0.4 µM)	relative viability (Serdemetan + Phenformin; first compound 1.265 µM)	relative viability (Serdemetan + Phenformin; first compound 4 µM)	relative viability (Serdemetan + AZD7762; first compound 0.04 µM)	relative viability (Serdemetan + AZD7762; first compound 0.1265 µM)	relative viability (Serdemetan + AZD7762; first compound 0.4 µM)	relative viability (Serdemetan + AZD7762; first compound 4 µM)	relative viability (Selisistat + Vorinostat; first compound 4 µM)	relative viability (Serdemetan + AZD7762; first compound 1.265 µM)
ABC-1	0.317	0.327	0.312	0.383	0.267	1.38	1.28	1.09	1.19	0.229	0.235	0.197	0.204	0.224	0.971	0.67	0.722	0.866	–	–
SW 900	–	–	–	–	–	0.684	0.705	0.747	0.781	0.551	0.487	0.674	0.295	0.365	0.647	0.652	0.616	0.359	0.518	0.437
NCI-H838	0.803	0.73	0.603	0.878	1.01	0.721	0.806	0.764	0.773	0.564	0.551	0.544	0.427	0.641	0.866	0.94	0.887	0.882	0.81	0.849
NCI-H1648	–	–	–	–	–	0.289	0.446	0.596	0.39	–	–	–	–	–	–	0.809	0.762	0.482	–	0.594
A549	–	–	–	–	–	–	–	–	–	0.0903	0.163	0.209	0.0895	0.0987	–	–	–	–	–	–
NCI-H1792	0.967	1	–	0.71	1.07	–	–	–	–	0.268	0.316	0.283	0.127	0.198	0.674	0.59	0.63	0.324	–	0.326
NCI-H1703	0.293	0.286	0.301	0.266	0.332	–	–	–	–	–	–	–	–	–	0.176	0.121	0.121	0.108	–	–
SK-LU-1	1.23	–	1.27	0.998	1.75	0.747	0.792	0.821	0.927	0.484	0.573	0.538	–	0.343	–	–	–	–	1.02	–
COR-L 105	0.772	0.868	0.493	0.725	0.72	0.892	0.846	0.964	1.21	0.507	0.418	0.443	0.492	0.431	–	–	–	–	0.876	–
Calu-6	0.998	0.961	0.992	0.902	0.932	–	–	–	–	–	–	–	–	–	–	–	–	–	–	–
NCI-H358	–	–	–	–	–	0.766	0.636	0.778	0.8	0.302	0.324	0.273	0.286	0.308	0.525	0.5	0.455	0.381	0.686	0.335
NCI-H1944	–	–	–	–	–	0.563	0.526	0.547	0.593	0.197	0.213	0.202	0.128	0.154	0.43	0.647	0.626	0.281	0.51	0.291
NCI-H2342	–	–	–	–	–	0.749	0.646	0.899	0.897	0.597	0.538	0.628	0.537	0.393	0.516	0.467	0.545	0.457	0.626	0.39
EBC-1	0.611	0.551	0.673	0.494	0.486	–	–	–	–	–	–	–	–	–	–	–	–	–	–	–
NCI-H1299	1.07	1.07	1.05	1.03	1.02	–	–	–	–	–	–	–	–	–	–	–	–	–	–	–
NCI-H2228	1.01	1.01	0.971	0.923	1	0.724	0.5	0.725	1.08	0.38	0.269	0.362	0.238	0.21	–	–	–	–	1	–
NCI-H522	–	–	–	–	–	0.908	0.868	0.919	1.13	0.669	0.669	0.67	–	0.679	0.731	0.699	0.931	0.801	0.835	1.04
IA-LM	0.867	0.735	0.758	0.682	0.881	1.09	–	0.926	1.22	–	–	–	–	–	–	–	–	–	–	–
SK-MES-1	–	–	–	–	–	1.13	1.15	1.1	1.18	0.634	0.646	0.605	0.576	0.456	–	–	–	–	1.01	–
NCI-H2170	–	–	–	–	–	0.868	0.8	0.917	0.964	0.374	0.354	0.383	0.35	0.336	0.891	0.964	0.873	0.758	0.845	0.746
SW 1573	1.19	1.02	1.03	1.02	1.03	0.761	0.94	1.19	1.03	0.36	0.334	0.289	0.211	0.245	–	–	–	–	–	–
NCI-H661	0.858	0.816	0.664	0.701	0.704	0.824	0.77	0.727	0.66	0.283	0.303	0.254	0.246	0.281	–	–	–	–	0.829	–
NCI-H1793	–	–	–	–	–	0.899	0.679	0.88	0.781	0.378	0.293	0.247	0.236	0.26	0.367	0.313	0.335	0.192	–	0.181
NCI-H520	0.525	0.495	0.619	0.648	0.738	0.722	0.705	0.592	0.794	0.513	0.657	0.596	–	0.38	–	–	–	–	0.814	–
NCI-H2023	0.978	0.961	0.849	0.95	0.928	0.662	0.786	0.674	0.853	0.395	0.413	0.351	0.254	0.205	–	–	–	–	0.784	–
NCI-H2009	1.01	1.06	0.583	0.921	0.997	0.774	0.786	0.741	0.793	0.451	0.472	0.431	0.307	0.366	–	–	–	–	0.77	–
